US20110105436A1, “HETEROARYL COMPOUNDS, COMPOSITIONS, AND METHODS OF USE IN CANCER TREATMENT” (AUCKLAND UNISERVICES LIMITED, priority 2008, published 2011)

How the values were obtained:
[1] = system: RCC4, RCC4/VHL, SN12C and SN12C-VHL shRNA cells; assay: Clonogenic cell survival assay; assay type: cell-based
Procedure: Clonogenic Cell Survival Assay. RCC4, RCC4/VHL, SN12C and SN12C-VHL shRNA were plated at 300 cells per 60 mm tissue culture dish. The following day, vehicle or STF-62247 was added and cells were incubated in the presence of drug for 10 days in RCC4 and RCC4/VHL and 7-10 days for SN12C and SN12C-VHL shRNA. The colonies were stained with crystal violet, and quantified. Each experiment was performed at least three times in triplicate.
A. RCC4 and RCC4/VHL cells were labeled with EYFP and the effect of STF-62247 was monitored by fluorescence in each cell type separately. Cells are pseudocolored. B. Clonogenic assay in RCC4, RCC4/VHL, SN12C, SN12C-VHL shRNA cells in the presence of STF-62247 (0-30 μM). Each point of the cell survival is calculated by the average of three different experiments in triplicate as the percent of treated on untreated plate. The error bars represented the standard error of the mean (SEM). C. Upper Panel, clonogenic assay in RCC4 infected with HIF-1α or HIF-2α shRNA by retroviral infection in presence of drug in same conditions described above. Bottom panel, HIF-1α or HIF-2α protein expression evaluated by western blot in RCC4 cells with HIF-1α or HIF-2α shRNA. Tubulin is used as loading control. […] Tumor volume was measured every 2-3 days and data are represented in fold. Five tumors in each condition were analyzed where * p<0.05, **p<0.01 and ***p<0.005.

[2] = system: SN12C and SN12C+shVHL tumor samples; assay: Ki67 immunostaining of tumor samples; assay type: in vivo, mice; conditions: RCC deficient in VHL or with wild-type VHL, FIG. 7H
Procedure: B. XTT assay in RCC4 and RCC4/VHL in presence of STF-62247 (0-40 μM). Each point of the cell survival is calculated by the average of three different experiments in duplicate as the percent of treated on untreated plate. The error bars are represented as the standard error of the mean (SEM) C. qRT-PCR for Glutl, VEGF, PDF and PGK in RCC4 cells with or without HIF-1a, HIF-2a shRNA and in RCC4/VHL. D. Hoescht staining in RCC4 and RCC4/VHL cells with 1.25 μM of STF-62247 for 2 days. Camptothecin was used as positive control E. FACS analysis for apoptosis after an annexin V-FITC staining in presence or absence of propidium iodine (PI) in cells after a treatment in same conditions than in C. F. Immunoblot for active caspase-3 in RCC4 and RCC4/VHL following treatment with 1.25 μM of STF-62247 for 24 hours. Staurosporine was used as positive control (0.2 μM for 24 hours). G,H. Immunostaining of caspase-3 and Ki67 respectively in SN12C and SN12C+shVHL tumor samples untreated or treated with 30 μM of STF-62247.1. Immunoblot for p53 and SerlS phospho-p53 in RCC4 and RCC4/VHL cells after a treatment with 1.25 μM of STF-62247 or doxorubicin for 24 hours.

Cc1cccc(Nc2nc(-c3ccncc3)cs2)c1 [Compound 5, N-(3-Methylphenyl)-4-(4-pyridinyl)-1,3-thiazol-2-amine]
dependence of cytotoxicity on HIF ([1]; RCC4 with HIF-1α or HIF-2α shRNA, RCC4/VHL with stable HIF-2α): induces cytotoxicity in VHL-null cells in a HIF-independent manner | selective toxicity in clonogenic assays ([1]; VHL-deficient versus VHL wild-type cells, 0-30 μM, FIG. 1B): selectively toxic to VHL-deficient cells compared to their VHL wild-type counterparts | proliferation by Ki67 staining [2]: no difference in proliferation
